Our source for the IC50 values is patent US10323000B2, “Indole derivatives and their use in neurodegenerative diseases” (priority 2014, dated 2019).

Experiment [1] addresses P2X7 (IL-1β release from THP-1 cells) (Homo sapiens (Human), UniProt Q99572). As to the kind of experiment: IL-1β release assay. The experiment is classed as cell-based. Put shortly: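 THP-1 cells were differentiated with PMA 0.5 μM and primed 4 h with LPS 10 ng/ml. They were then pre-incubated 20 min with compound at 37° C and stimulated 30 min with BzATP 0.8 mM. Mature IL-1β released into the supernatant was quantified by sandwich ELISA.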

The target of a further experiment is human P2X7 receptor (Homo sapiens (Human), UniProt Q99572). As to the kind of experiment: Pore permeation assay (YO PRO dye uptake). The format is cell-based.

Each structure is given as a SMILES string. pIC50: −log10 of the molar value. Like-named read-outs stand apart in the source and are kept apart here.

P2X7 (IL-1β release from THP-1 cells), sequence (Q99572 whole entry): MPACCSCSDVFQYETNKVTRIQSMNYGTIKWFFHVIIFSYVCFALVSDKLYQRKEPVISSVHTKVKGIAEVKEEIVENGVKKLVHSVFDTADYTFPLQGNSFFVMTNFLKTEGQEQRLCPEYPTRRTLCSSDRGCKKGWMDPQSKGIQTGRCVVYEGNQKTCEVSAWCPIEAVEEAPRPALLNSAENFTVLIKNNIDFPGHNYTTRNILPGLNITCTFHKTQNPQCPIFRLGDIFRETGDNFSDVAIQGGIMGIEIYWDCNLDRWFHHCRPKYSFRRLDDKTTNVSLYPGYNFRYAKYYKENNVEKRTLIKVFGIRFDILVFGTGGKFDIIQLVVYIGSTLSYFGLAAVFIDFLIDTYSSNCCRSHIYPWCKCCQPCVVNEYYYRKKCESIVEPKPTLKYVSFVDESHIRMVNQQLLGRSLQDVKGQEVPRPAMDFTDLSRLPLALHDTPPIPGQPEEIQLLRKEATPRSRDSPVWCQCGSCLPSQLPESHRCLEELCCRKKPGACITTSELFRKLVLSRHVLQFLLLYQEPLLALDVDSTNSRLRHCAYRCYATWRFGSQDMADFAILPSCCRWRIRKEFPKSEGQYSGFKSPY
human P2X7 receptor, sequence (Q99572 whole entry): as above

Regarding `O=C(NCC1CCC(F)(F)CC1)c1cn(CC2COCCN2)c2cccc(Cl)c12` (stereo not drawn) [Compound 164, 4-chloro-N-((4,4-difluorocyclohexyl)methyl)-1-(morpholin-3-ylmethyl)-1H-indole-3-carboxamide], the values for the pIC50 (in experiment [1]; against human P2X7 receptor) were 7.00 to 8.00 and 6.30 to 7.00, respectively.
As to `O=C(NCC1(O)CCCCCC1)c1cn(C2COC2)c2cccc(Cl)c12` [Compound 65, 4-Chloro-1-oxetan-3-yl-1H-indole-3-carboxylic acid (1-hydroxy-cycloheptylmethyl)-amide], the figures for the pIC50 (in experiment [1]; against human P2X7 receptor) were 6.30 to 7.00 and 7.00 to 8.00, respectively.
For `O=C(NC[C@@]1(O)CCCC(F)(F)C1)c1cn(C[C@@H]2CCCO2)c2cccc(Cl)c12` [Compound 129], the figures for the pIC50 (in experiment [1]; at human P2X7 receptor) were 6.00 to 6.30 and 6.30 to 7.00, respectively.
With `O=C(NCC1CCC(F)(F)CC1)c1cn(CC(=O)N2CCCCC2)c2cccc(Cl)c12` [Compound 195, 4-Chloro-1-(2-oxo-2-piperidin-1-yl-ethyl)-1H-indole-3-carboxylic acid (4,4-difluoro-cyclohexylmethyl)-amide], the pIC50 in experiment [1] was 6.30 to 7.00; against human P2X7 receptor it was 7.00 to 8.00.
On to `C[C@H]1CCC[C@@](O)(CNC(=O)c2cn(C3COC3)c3cccc(Cl)c23)C1` [Compound 90, 4-chloro-N-(((1S,3S)-1-hydroxy-3-methylcyclohexyl)methyl)-1-(oxetan-3-yl)-1H-indole-3-carboxamide], for which the negative-log IC50 (pIC50) in experiment [1] is 7.00 to 8.00; at human P2X7 receptor (HEK293 transfected with human P2X7, BzATP 10 uM, YO PRO dye uptake, read-out: hP2X7 IC50), > 8.00.
Turning to `COCCn1cc(C(=O)NCC2(OC)CCC(F)(F)CC2)c2c(Cl)cccc21` [Compound 17, 4-Chloro-1-(2-methoxy-ethyl)-1H-indole-3-carboxylic acid (4,4-difluoro-1-methoxy-cyclohexylmethyl)-amide], the pIC50 in experiment [1] was 6.30 to 7.00; against human P2X7 receptor, 7.00 to 8.00.
